Laboratory results reported in PubChem BioAssay (NCI).
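Tested at 5 concentrations; 48 h exposure; 96-well plates; endpoints linearly interpolated, else capped at highest concentration. Definition used: TGI = concentration required for complete inhibition of growth.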 Where a SMILES comes first, the peptide text is derived from it. [ ]: non-standard residue; d: D form.

What was measured:
Experiment in all cases: NCI anticancer screen, dose series, 48 h
KM12 colon = system: KM12 colon
UO-31 renal = system: UO-31 renal
U251 CNS = system: U251 CNS
SF-295 CNS = system: SF-295 CNS
EKVX NSCLC = system: EKVX NSCLC
HS 578T breast = system: HS 578T breast
IGROV1 ovarian = system: IGROV1 ovarian
SK-MEL-5 melanoma = system: SK-MEL-5 melanoma
RXF 393 renal = system: RXF 393 renal
SR leukemia = system: SR leukemia

SMILES	TGI (KM12 colon) [µM]	TGI (UO-31 renal) [µM]	TGI (U251 CNS) [µM]	TGI (SF-295 CNS) [µM]	TGI (EKVX NSCLC) [µM]	TGI (HS 578T breast) [µM]	TGI (IGROV1 ovarian) [µM]	TGI (SK-MEL-5 melanoma) [µM]	TGI (RXF 393 renal) [µM]	TGI (SR leukemia) [µM]
Cc1n(Cc2ccccc2)nc2sc(N)n[n+]12	> 100	> 100	> 100	> 100	> 100	> 100	> 100	> 100	> 100	
CCOC(=O)c1cccc(NC(=O)CI)c1	3.66	0.43	1.35	5.69	3.94		1.02	1.22	2.74	0.0918
CCOc1ccc(N/C(=C(/C(Cl)=C(/Cl)NC(C)(C)C)[N+](=O)[O-])n2nnc3ccccc32)cc1	61.7	> 100	35.1	78.8	> 100	32.6			41.8	
O=CN1CCN(C(=O)c2ccc(Cl)c(Cl)c2)C1=S	30.3		28	34.4	31.7	> 100	30.9		35	
COc1ccc(-c2oc3c(OC)c(OC)cc(O)c3c(=O)c2OC)cc1	> 100	> 100	> 100	> 100	> 100	> 100	> 100	> 100	> 100	
CCOC(=O)C(Cl)(NC(=O)OCc1ccccc1)C(F)(F)F (stereo unspecified)	> 100	> 100	> 100	> 100	> 100	> 100	> 100	> 100	> 100	
N#Cc1c(-c2ccccc2)c(CN2CCCCC2)c(=O)n2c1[nH]c1ccccc12	> 100	> 100	> 100	> 100			> 100	34.1	> 100	
O=C(c1ccc(Cl)cc1)N(C(=S)OCCOc1ccccc1)c1ccccc1	39.4	3.12	29.7	94	48.6	> 100	38.1		39.3	
CN(C)Cc1cc(N=Nc2ccc(Cl)cc2)cc(CN(C)C)c1O	20.7	7.23	19.8	24.7		27.7	12	21.1	25.1	22.8
Cn1cc(-c2csc(-c3cn(C)c4ccccc34)n2)c2ccccc21	> 100	> 100	> 100	> 100		> 100	> 100	> 100	54.4	
CC(Oc1ccc(OCC2CCCCC2)cc1)C(=O)NCc1ccco1 (stereo unspecified)	> 100	92.3	> 100				> 100	31.4	71.4	
O=C1c2ccccc2N2Oc3ccccc3C12c1ccccc1 (stereo unspecified)		> 100	> 100	> 100	> 100		> 100	> 100	> 100	> 100
Nc1nc(-c2ccco2)cc(-c2ccc(CO)o2)n1	> 100	> 100		> 100	> 100		> 100	> 100	> 100	> 100
CC(C)Oc1c(-c2ccc(F)cc2)c(O)c2c3c1oc(=O)n3C=CC2C (stereo unspecified)	34.3	25.5	30.3	34.6	30.6	52.8	29.2	22.9	27.3	
CC(=O)OC(C)(C)CCC(=O)[C@](C)(O)[C@H]1[C@H](O)C[C@@]2(C)[C@@H]3CCc4c(cc(OC5OC(CO)C(O)C(O)C5O)c(O)c4C)C3(C)C(=O)C[C@]12C (stereo partly specified)	> 100	> 100	> 100	> 100	> 100		> 100	> 100	> 100	> 100
Fc1ccc(C(OCCN2CC3CCC(C2)N3CCCc2ccccc2)c2ccc(F)cc2)cc1	12.2	19.4	16.1	11.8	16.4	13.6	21.1	3.4		
CSc1nc2c(c(=O)[nH]1)N=C(c1ccccc1)CC(c1ccccc1)N2 (stereo unspecified)	29.2	> 100	> 100	> 100	> 100		> 100	88.4	79.6	> 100
CC(=O)CC1=C(OC(C)C)C2(OCCO2)C1O (stereo unspecified)	> 100	> 100	> 100	> 100	> 100	> 100	> 100	> 100	> 100	
CC1(C)[C@@H]2C[C@H]1c1cnc(-c3ccccn3)cc1C2CCCCC[C@@H]1c2cc(-c3ccccn3)ncc2[C@@H]2C[C@H]1C2(C)C (stereo partly specified)	> 100	> 22.2	> 100	7.33	> 100		46.1	> 38.5	45.5	> 100
CC(C)C[C@H](NC(=O)[C@H](CC(C)C)NC(=O)[C@@H](Cc1c[nH]c2ccccc12)NC(=O)[C@H](Cc1ccccc1)NC(=O)[C@@H](Cc1c[nH]c2ccccc12)NC(=O)[C@H](CCC(N)=O)NC(=O)[C@H](CCC(N)=O)NC(=O)[C@H]1CCCN1C(=O)[C@@H](N)CCCCN)C(N)=O (H-K[dP]QQ[dW]F[dW]LL-NH2)	> 100	> 100	> 100	> 100	> 100		> 100	> 100	> 100	
Cc1ccc(N/C(SCc2ccccc2)=C(\C(Cl)=C(Cl)Cl)[N+](=O)[O-])c(C)c1	> 100	63.5	29.3	94.9	> 100	68.4				
c1ccc2c(c1)OC(N1CCCC1)c1cnc(N3CCOCC3)nc1-2 (stereo unspecified)	> 100	47.2	> 100	> 100	79.4	> 100			60.4	> 100
O=C1CC(NCc2ccccc2)c2c(Cl)sc(Cl)c21 (stereo unspecified)	> 93.2	75.7	43.4	> 100	> 100	> 82.5	> 64.6	> 100		> 100
CC[C@@]1(O)C(=O)OCc2c1cc1n(c2=O)Cc2c-1nc1ccccc1c2/C=N/NC(=O)c1ccc(N)cc1	> 75.9	25.6	7.63	14.7	> 100	> 100		1.1	0.22	
